From ChEMBL document CHEMBL1145882, “High affinity, bioavailable 3-amino-1,4-benzodiazepine-based gamma-secretase inhibitors” (Bioorg Med Chem Lett, 2003) come the findings set out here.

By pIC50 is commonly meant the IC50 on a negative log10 scale, so that one unit is a factor of ten. Low values mean a high IC50, high ones a low IC50. The bioavailability is the share of a dose that reaches the circulation, judged against a reference dose that is usually intravenous. High values mean much systemic uptake, low ones little systemic uptake. The Cmax is the highest concentration seen after dosing. A word on the AUC: it is the area under the concentration-time curve, a measure of exposure. Low values mean less exposure, high ones more exposure. For orientation: half-life means the time in which the quantity being followed falls by half. The low end stands for rapid decline, the high end for slow decline.

pIC50: −log10 of the molar value.

In data set [1] the target is Gamma-secretase. Kind of data set: In vitro inhibition of gamma secretase. It counts as protein-complex assay, Homo sapiens.
A short description of data set [2]: Bioavailability in rat. The data set is classed as ADME, organism-based. To be noted: in vivo.
Data set [3] can be described thus: Cmax value at 5 mg/kg po was determined in rat. It counts as ADME, organism-based. Further details: dose 5 mg/kg, route oral. To be noted: in vivo.
A short description of data set [4]: Area under curve at 4 hr in rat. It counts as ADME, organism-based. Further details: time < 4 hr. The conditions noted are these: in vivo.
Data set [5] can be described thus: Half life period was determined. The conditions noted are these: rat. The data set is classed as ADME.
The nature of data set [6]: Cmax value at 5 mg/kg po in rat. Further details: dose 5 mg/kg, route oral. It counts as ADME, organism-based. The conditions noted are these: in vivo.
Data set [7] is described as follows: Cmax value at 1 mg/kg po in rat. It counts as ADME, organism-based. Further details: dose 1 mg/kg, route oral. The conditions noted are these: in vivo.

Take `C[C@@H](Cc1ccc(F)c(F)c1)C(=O)N[C@H]1N=C(c2ccc3c(c2)OCO3)c2ccccc2NC1=O`: the pIC50 in data set [1] is 8.74.

As to `C[C@@H](Cc1ccc(F)c(F)c1)C(=O)N[C@H]1N=C(c2ccc3c(c2)OCCO3)c2ccccc2N(C)C1=O`, in data set [1], the pIC50 was 8.33. This pIC50 lies 0.41 log units lower than the previous one.

`CNC(=O)CN1C(=O)[C@@H](NC(=O)[C@@H](C)Cc2ccc(F)c(F)c2)N=C(c2ccc3c(c2)OCO3)c2ccccc21` gave a pIC50 in data set [1] of 8.74.

In turn, `C[C@@H](Cc1ccc(F)c(F)c1)C(=O)N[C@H]1N=C(c2ccc3c(c2)OCO3)c2ccccc2N(CC(N)=O)C1=O` showed a bioavailability in data set [2] of 22%. Also, the peak level in data set [3] (Cmax) was 900 nM. This compound showed an AUC at 4 h in data set [4] of 2.9 µM·h. In addition, the half-life in data set [5] is 1.4 h. The compound also showed a negative logarithm of the IC50 (pIC50) in data set [1] of 7.88.

On to `C[C@@H](Cc1ccc(F)c(F)c1)C(=O)N[C@H]1N=C(c2ccc3c(c2)OCO3)c2ccccc2N(C)C1=O`, for which the peak concentration (Cmax) in data set [6] stood at 40 nM. In data set [4], this compound returned an AUC at 4 h of 0.09 µM·h. The pIC50 in data set [1] is 7.88.

In data set [1], `C[C@@H](Cc1ccc(F)c(F)c1)C(=O)N[C@H]1N=C(c2ccc3c(=O)[nH]ccc3c2)c2ccccc2N(C)C1=O` showed a pIC50 of 9.70.

In turn, `C[C@@H](Cc1ccc(F)c(F)c1)C(=O)N[C@H]1N=C(c2ccc3c(=O)ccoc3c2)c2ccccc2N(C)C1=O` had a pIC50 in data set [1] of 8.92.

Consider `C[C@@H](Cc1ccc(F)c(F)c1)C(=O)N[C@H]1N=C(c2ccc3c(c2)OC(F)(F)O3)c2ccccc2N(C)C1=O`, for which the pIC50 in data set [1] was 7.55. This pIC50 is 1.37 log units lower than that of the compound before.

In the case of `C[C@@H](Cc1ccc(F)c(F)c1)C(=O)NC1N=C(c2ccc(C(N)=O)cc2)c2ccccc2N(C)C1=O` (stereo partly specified), the negative logarithm of the IC50 (pIC50) in data set [1] is 9.31.

Take `C[C@@H](Cc1ccc(F)c(F)c1)C(=O)N[C@H]1N=C(c2ccc3c(c2)CCNC3=O)c2ccccc2N(C)C1=O`: the Cmax in data set [7] was found to be 2 nM. Also, the AUC at 4 h in data set [4] was < 0.004 µM·h. The negative-log IC50 (pIC50) in data set [1] was 9.52.

In data set [1], `C[C@@H](Cc1ccc(F)c(F)c1)C(=O)N[C@H]1N=C(c2ccc3c(c2)CCC(=O)N3)c2ccccc2N(C)C1=O` had a pIC50 of 7.00.

`C[C@@H](Cc1ccc(F)c(F)c1)C(=O)N[C@H]1N=C(c2ccc3c(c2)CCN(C)C3=O)c2ccccc2N(C)C1=O`: the pIC50 in data set [1] is 5.72.

Take `C[C@@H](Cc1ccc(F)c(F)c1)C(=O)N[C@H]1N=C(c2ccc3c(c2)CCCC3=O)c2ccccc2N(C)C1=O`: the pIC50 in data set [1] is 8.66.

In the case of `C[C@@H](Cc1ccc(F)c(F)c1)C(=O)N[C@H]1N=C(c2ccc3c(c2)CCC3=O)c2ccccc2N(C)C1=O`, the pIC50 in data set [1] is 8.44.

Take `C[C@@H](Cc1ccc(F)c(F)c1)C(=O)N[C@H]1N=C(c2ccc3c(c2)OCO3)c2ccccc2N(CC(=O)N(C)C)C1=O`: the pIC50 in data set [1] was 8.26.

For the compound `CC(=O)CCN1C(=O)[C@@H](NC(=O)[C@@H](C)Cc2ccc(F)c(F)c2)N=C(c2ccc3c(c2)OCO3)c2ccccc21`, the pIC50 in data set [1] was 8.43.

In turn, `COC(=O)CN1C(=O)[C@@H](NC(=O)[C@@H](C)Cc2ccc(F)c(F)c2)N=C(c2ccc3c(c2)OCO3)c2ccccc21` showed a pIC50 in data set [1] of 7.90.

For `C[C@@H](Cc1ccc(F)c(F)c1)C(=O)N[C@H]1N=C(c2ccc3c(c2)OCO3)c2ccccc2N(CCO)C1=O`, the negative-log IC50 (pIC50) in data set [1] was 9.05. Compared with the last compound, the pIC50 is 1.15 log units higher.
